From patent publication US20240360165A1, “INHIBITORS OF CYCLIN DEPENDENT KINASE 7 (CDK7)” (Syros Pharmaceuticals, Inc., priority 2016, published 2024)
Read-outs that look alike come from different tables or passages of the source.

Experiments:
CDK2/Cyclin E1 complex = CDK2/Cyclin E1 complex (Homo sapiens, UniProt P24941); assay: CDK2 inhibition assay (Caliper/LabChip EZ Reader kinase assay); assay type: biochemical
Procedure: (§1) Compounds of the invention were assayed for inhibition of CDK7, CDK9, CDK12, and CDK2 activity at Biortus Biosciences (Jiangyin, Jiangsu Province, P.R. of China) using kinase assays for each CDK developed with a Caliper/LabChip EZ Reader (Perkin Elmer, Waltham, MA).
(§2) Furthermore, the CDK9 inhibition assay used CDK9/Cyclin T1 complex (8 nM) and “5-FAM-CDK9tide” peptide substrate (2 μM, synthesized fluorophore-labeled peptide with the following sequence: 5-FAM-GSRTPMY-NH2 where 5-FAM is defined above and NH2 signifies a C-terminal amide) with 10 mM MgCl2 in the buffer composition listed above. […] Additionally, the CDK2 inhibition assay used CDK2/Cyclin E1 complex (0.5 nM) and “5-FAM-CDK7tide” ([…]) as defined above, with 2 mM MgCl2 in the buffer composition listed above.

CDK9/Cyclin T1 complex = CDK9/Cyclin T1 complex (Homo sapiens, UniProt P50750); assay: CDK9 inhibition assay (Caliper/LabChip EZ Reader kinase assay); assay type: biochemical
Sequence of CDK9/Cyclin T1 complex (P50750 whole entry, species assumed): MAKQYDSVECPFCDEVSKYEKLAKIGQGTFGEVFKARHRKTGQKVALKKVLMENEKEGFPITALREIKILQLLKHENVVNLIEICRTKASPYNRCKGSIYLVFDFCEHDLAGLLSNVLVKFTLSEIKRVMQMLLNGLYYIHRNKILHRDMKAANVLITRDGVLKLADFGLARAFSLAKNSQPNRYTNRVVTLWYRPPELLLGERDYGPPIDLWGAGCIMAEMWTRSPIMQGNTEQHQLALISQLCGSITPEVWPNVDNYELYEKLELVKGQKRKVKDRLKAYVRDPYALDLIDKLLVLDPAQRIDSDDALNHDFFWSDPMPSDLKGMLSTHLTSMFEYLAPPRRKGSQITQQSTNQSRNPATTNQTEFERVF
Sequence of CDK9/Cyclin T1 complex (O60563 whole entry partner, species assumed): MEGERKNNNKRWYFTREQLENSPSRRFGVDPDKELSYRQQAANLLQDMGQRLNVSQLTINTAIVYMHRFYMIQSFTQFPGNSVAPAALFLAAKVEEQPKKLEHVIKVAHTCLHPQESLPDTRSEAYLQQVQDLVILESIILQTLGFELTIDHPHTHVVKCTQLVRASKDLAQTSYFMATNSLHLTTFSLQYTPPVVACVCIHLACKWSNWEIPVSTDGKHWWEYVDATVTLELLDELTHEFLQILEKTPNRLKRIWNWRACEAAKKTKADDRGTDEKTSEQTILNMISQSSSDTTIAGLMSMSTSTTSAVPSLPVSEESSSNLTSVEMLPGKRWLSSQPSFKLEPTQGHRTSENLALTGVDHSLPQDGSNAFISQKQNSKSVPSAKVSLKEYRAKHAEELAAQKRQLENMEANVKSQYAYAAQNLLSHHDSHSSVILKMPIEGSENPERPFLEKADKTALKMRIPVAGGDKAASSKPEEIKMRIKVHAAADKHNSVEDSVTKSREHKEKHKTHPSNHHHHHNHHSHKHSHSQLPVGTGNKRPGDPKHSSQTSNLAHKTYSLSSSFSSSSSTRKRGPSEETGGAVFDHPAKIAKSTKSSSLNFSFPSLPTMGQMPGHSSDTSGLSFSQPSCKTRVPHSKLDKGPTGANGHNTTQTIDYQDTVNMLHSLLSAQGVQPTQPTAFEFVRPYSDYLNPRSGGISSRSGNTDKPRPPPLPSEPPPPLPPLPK
Procedure: as §1, §2

A673 cells = assay: Inhibition of proliferation of A673 cells (CyQUANT, 72 hour); assay type: cell-based, human
Procedure: A673 cells are a cell line derived from human […] Ewing's sarcoma. Representative compounds of the invention were tested at different concentrations (from […]; 0.5 log serial dilutions) for their ability to inhibit the proliferation of A673 cells. Known CDK inhibitors dinaciclib or N-((1S,3R)-3-((5-chloro-4-(1H-indol-3-yl)pyrimidin-2-yl)amino)cyclohexyl)-5-((E)-4-(dimethylamino)but-2-enamido)picolinamide and triptolide were used as positive controls. Cells were grown in Dulbecco's Modified Eagle's Medium, +10% FBS+1 mM Sodium Pyruvate. The cells were cultured at 37° C. in a humidified chamber in the presence of 5% CO2. Proliferation assays were conducted over a 72 hour time period. CyQUANT® (Life Technologies, Chicago, IL USA) was used to assess the anti-proliferative effects of the compounds following manufacturer's directions and utilizing the reagents supplied with the CyQUANT® kit.

[1] = molecular target: CDK7/Cyclin H/MAT1 complex (Homo sapiens, UniProt P50613); assay: CDK7 inhibition assay (Caliper/LabChip EZ Reader kinase assay); assay type: biochemical
Sequence of CDK7/Cyclin H/MAT1 complex (P50613 whole entry, species assumed): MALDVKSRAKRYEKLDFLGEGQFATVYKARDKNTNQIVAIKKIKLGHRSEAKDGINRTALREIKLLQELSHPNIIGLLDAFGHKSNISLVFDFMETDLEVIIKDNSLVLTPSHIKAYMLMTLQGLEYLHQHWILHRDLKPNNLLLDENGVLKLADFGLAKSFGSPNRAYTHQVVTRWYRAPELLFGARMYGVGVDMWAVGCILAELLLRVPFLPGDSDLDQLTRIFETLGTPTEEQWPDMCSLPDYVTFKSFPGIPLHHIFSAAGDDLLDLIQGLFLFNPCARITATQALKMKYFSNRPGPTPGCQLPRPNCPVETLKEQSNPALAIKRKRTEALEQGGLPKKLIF
Sequence of CDK7/Cyclin H/MAT1 complex (P51946 whole entry partner, species assumed): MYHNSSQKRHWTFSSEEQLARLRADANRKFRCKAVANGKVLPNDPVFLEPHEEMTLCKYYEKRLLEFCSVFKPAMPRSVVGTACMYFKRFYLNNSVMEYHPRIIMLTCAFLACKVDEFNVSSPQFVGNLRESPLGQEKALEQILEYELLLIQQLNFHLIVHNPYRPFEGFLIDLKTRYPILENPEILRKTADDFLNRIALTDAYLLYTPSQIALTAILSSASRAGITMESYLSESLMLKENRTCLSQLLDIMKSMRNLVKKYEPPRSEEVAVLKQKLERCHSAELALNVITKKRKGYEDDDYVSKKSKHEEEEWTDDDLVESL
Sequence of CDK7/Cyclin H/MAT1 complex (P51948 whole entry partner, species assumed): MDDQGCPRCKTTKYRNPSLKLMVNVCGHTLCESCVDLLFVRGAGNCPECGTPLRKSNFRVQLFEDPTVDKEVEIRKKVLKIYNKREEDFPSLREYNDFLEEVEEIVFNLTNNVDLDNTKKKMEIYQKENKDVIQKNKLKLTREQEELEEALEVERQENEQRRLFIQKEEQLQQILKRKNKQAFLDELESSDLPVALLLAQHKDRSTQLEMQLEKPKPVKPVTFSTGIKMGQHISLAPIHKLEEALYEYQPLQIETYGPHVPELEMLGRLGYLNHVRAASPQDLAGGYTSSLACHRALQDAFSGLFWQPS
Procedure: as §1, §2

[2] = molecular target: T1, CDK12 (aa686-1082)/Cyclin K complex (Homo sapiens, UniProt Q9NYV4); assay: CDK12 inhibition assay (Caliper/LabChip EZ Reader kinase assay); assay type: biochemical; details: Table 1; CDK12 (aa686-1082)/Cyclin K 50 nM, ATP 2 mM, 3 hr at 27° C.
T1 construct: CDK12 (aa686-1082)/Cyclin K complex
T1 sequence (Q9NYV4 686-1082, species assumed): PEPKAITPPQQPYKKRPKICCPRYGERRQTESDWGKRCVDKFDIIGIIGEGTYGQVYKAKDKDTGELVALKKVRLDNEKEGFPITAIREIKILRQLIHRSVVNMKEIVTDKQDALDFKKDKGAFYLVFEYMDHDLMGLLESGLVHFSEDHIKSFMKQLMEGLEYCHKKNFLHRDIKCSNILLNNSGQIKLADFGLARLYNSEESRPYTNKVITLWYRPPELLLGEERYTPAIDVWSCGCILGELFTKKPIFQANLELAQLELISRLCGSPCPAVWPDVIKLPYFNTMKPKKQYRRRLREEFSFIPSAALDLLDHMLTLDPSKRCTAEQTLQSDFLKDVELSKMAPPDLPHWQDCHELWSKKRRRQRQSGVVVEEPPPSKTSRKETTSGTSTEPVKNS
T1 sequence (O75909 whole entry partner, species assumed, the tested form may be a part): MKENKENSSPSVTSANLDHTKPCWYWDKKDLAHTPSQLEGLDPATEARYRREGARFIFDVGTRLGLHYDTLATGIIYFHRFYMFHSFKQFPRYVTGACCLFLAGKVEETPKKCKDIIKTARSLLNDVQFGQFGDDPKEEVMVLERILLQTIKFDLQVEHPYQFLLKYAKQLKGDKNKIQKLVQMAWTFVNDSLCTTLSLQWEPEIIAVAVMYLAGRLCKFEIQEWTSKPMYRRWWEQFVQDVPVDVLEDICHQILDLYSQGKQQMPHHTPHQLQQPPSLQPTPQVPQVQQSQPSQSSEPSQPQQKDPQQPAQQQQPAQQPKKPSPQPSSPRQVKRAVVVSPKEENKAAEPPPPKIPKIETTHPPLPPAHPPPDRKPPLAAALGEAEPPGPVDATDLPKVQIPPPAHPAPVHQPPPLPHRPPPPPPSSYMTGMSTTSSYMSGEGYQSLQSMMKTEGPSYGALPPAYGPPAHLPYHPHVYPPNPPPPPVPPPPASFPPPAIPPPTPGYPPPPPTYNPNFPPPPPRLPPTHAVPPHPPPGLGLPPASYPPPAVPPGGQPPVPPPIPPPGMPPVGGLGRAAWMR
Procedure: as §1, §2

[3] = Table 3, comparison with structural analogs
[4] = Homo sapiens, A673, 72 h, Table 3, comparison with structural analogs, 72 hour proliferation, read-out: A673 Cells
[5] = Table 1, CDK2/Cyclin E1 0.5 nM, ATP 2 mM, 35 min at 27° C.
[6] = Table 1, CDK9/Cyclin T1 8 nM, ATP 2 mM, 15 min at 27° C.
[7] = Homo sapiens, A673, 72 h, A673 cells, 72 hour, CyQUANT, read-out: Inhibition of Proliferation of A673 Cells (calculated IC50)
[8] = Table 1, CDK7/Cyclin H/MAT1 6 nM, ATP 2 mM, 35 min at 27° C.
[9] = A673 cells, 72 hour, CyQUANT, read-out: Inhibition of Proliferation of A673 Cells (calculated IC50)

Row | IC50 (CDK2/Cyclin E1 complex; [3]) [nM] | IC50 (CDK9/Cyclin T1 complex; [3]) [nM] | IC50 [1, 3] [nM] | IC50 (CDK2/Cyclin E1 complex; [5]) [nM] | IC50 (CDK9/Cyclin T1 complex; [6]) [nM] | IC50 [2] [nM] | IC50 [1, 8] [nM] | Structure (SMILES) | IC50 (A673 cells; [4]) [nM] | IC50 (A673 cells; [7]) [nM] | IC50 (A673 cells; [9]) [nM]
1 | 200 to 5000 | 200 to 5000 | 200 to 5000 |  |  |  |  | C[C@]1(N)CC[C@@H](Nc2ncc(C(F)(F)F)c(-c3n[nH]c4ccccc34)n2)CC1 [reference compound] | 20 to 200 |  | 
2 |  |  |  | > 5000 | > 5000 | 200 to 5000 | 20 to 200 | CC(C)CN1CCC[C@H](Nc2ncc(Cl)c(-c3c[nH]c4ccccc34)n2)C1 [Compound 145] |  | 200 to 5000 | 
3 |  |  |  | > 5000 | 200 to 5000 | 200 to 5000 | 20 to 200 | FC(F)(F)c1cnc(N[C@H]2CCCNC2)nc1-c1c[nH]c2cc(-c3cc[nH]n3)ccc12 [Compound 291, N-[(3S)-3-piperidyl]-4-[6-(1H-pyrazol-3-yl)-1H-indol-3-yl]-5-(trifluoromethyl) pyrimidin-2-amine] |  |  | 20 to 200
4 |  |  |  |  | 200 to 5000 | 200 to 5000 | 20 to 200 | FC(F)(F)c1cnc(N[C@H]2CCCNC2)nc1-c1c[nH]c2c(Br)cccc12 [Compound 163] |  | 20 to 200 | 
5 |  |  |  | > 5000 | > 5000 | > 5000 | 200 to 5000 | C#Cc1cnc(N[C@H]2CCCNC2)nc1-c1cn(C)c2ccccc12 [Compound 195] |  |  | 20 to 200
6 |  |  |  | 200 to 5000 | 200 to 5000 | 200 to 5000 | < 20 | CCc1cnc(N[C@H]2CCCNC2)nc1-c1n[nH]c2c(F)cccc12 [Compound 143, (S)-5-ethyl-4-(7-fluoro-1H-indazol-3-yl)-N-(piperidin-3-yl)pyrimidin-2-amine] |  | < 20 | 
7 |  |  |  | 200 to 5000 | 200 to 5000 | 200 to 5000 | 20 to 200 | COCCN1CCC[C@H](Nc2ncc(Cl)c(-c3c[nH]c4ccccc34)n2)C1 [Compound 149] |  |  | 20 to 200
8 |  |  |  | 200 to 5000 | 200 to 5000 | 200 to 5000 | < 20 | CC[C@H]1CC[C@H](Nc2ncc(C(F)(F)F)c(-c3c[nH]c4ccccc34)n2)CN1 [Compound 217] |  | 20 to 200 | 
9 |  |  |  | 200 to 5000 | 200 to 5000 | 20 to 200 | < 20 | CC1(C)CNC[C@@H](Nc2ncc(C(F)(F)F)c(-c3c[nH]c4ccccc34)n2)C1 [Compound 243, N-[(3S)-5,5-dimethyl-3-piperidyl]-4-(1H-indol-3-yl)-5-(trifluoromethyl) pyrimidin-2-amine] |  | < 20 | 
10 |  |  |  | > 5000 | > 5000 | > 5000 | 20 to 200 | CCc1cnc(N[C@H]2CCCNC2)nc1-c1c[nH]c2c(S(=O)(=O)O)cccc12 [Compound 362, 3-[5-ethyl-2-[[(3S)-3-piperidyl]amino]pyrimidin-4-yl]-1H-indole-7-sulfonic acid] |  |  | 
11 |  |  |  |  | 200 to 5000 | 200 to 5000 | 20 to 200 | Cn1cc(-c2cccc3c(-c4nc(N[C@H]5CCCNC5)ncc4C(F)(F)F)c[nH]c23)cn1 [Compound 164] |  | < 20 | 
12 | 200 to 5000 | > 5000 | 200 to 5000 |  |  |  |  | C[C@]1(N)CC[C@@H](Nc2ncc(C(F)(F)F)c(-c3c[nH]c4ccccc34)n2)CC1 [reference compound] | 20 to 200 |  | 
13 |  |  |  | 200 to 5000 | 200 to 5000 | 200 to 5000 | < 20 | FC(F)(F)c1cnc(N[C@H]2CCCNC2)nc1-c1c[nH]c2cc(-n3ccnc3)ccc12 [Compound 248, 4-(6-imidazol-1-yl-1H-indol-3-yl)-N-[(3S)-3-piperidyl]-5-(trifluoromethyl) pyrimidin-2-amine] |  |  | 
14 |  |  |  | 200 to 5000 | 200 to 5000 | 200 to 5000 | 20 to 200 | CC1(O)CCC(c2cccc3c(-c4nc(N[C@H]5CCCNC5)ncc4C(F)(F)F)c[nH]c23)CC1 (single isomer, unassigned) [Compound 193] |  |  | 
15 |  |  |  | 200 to 5000 | 200 to 5000 | 200 to 5000 | < 20 | CCc1cnc(N[C@H]2CCCNC2)nc1-c1c[nH]c2ncc(F)cc12 [Compound 270, (S)-5-ethyl-4-(5-fluoro-1H-pyrrolo[2,3-b]pyridin-3-yl)-N-(piperidin-3-yl)pyrimidin-2-amine] |  |  | 
16 |  |  |  |  | 200 to 5000 | 200 to 5000 | 20 to 200 | FC(F)(F)c1cnc(N[C@H]2CCCNC2)nc1-c1c[nH]c2c(-c3ccncc3)cccc12 [Compound 162] |  | < 20 | 

Further lines, the compound ahead of its results:

Row | Structure (SMILES) | IC50 (CDK2/Cyclin E1 complex; [3]) [nM] | IC50 (CDK9/Cyclin T1 complex; [3]) [nM] | IC50 [1, 3] [nM] | IC50 (CDK2/Cyclin E1 complex; [5]) [nM] | IC50 (CDK9/Cyclin T1 complex; [6]) [nM] | IC50 [2] [nM] | IC50 [1, 8] [nM] | IC50 (A673 cells; [4]) [nM] | IC50 (A673 cells; [7]) [nM] | IC50 (A673 cells; [9]) [nM]
17 | Clc1cnc(N[C@@H]2CN3CCC2CC3)nc1-c1c[nH]c2ccccc12 [Compound 131, (S)—N-(5-chloro-4-(1H-indol-3-yl)pyrimidin-2-yl)quinuclidin-3-amine] |  |  |  | > 5000 | > 5000 | > 5000 | > 5000 |  | 200 to 5000 | 
18 | FC(F)(F)c1cnc(N[C@@H]2CNC[C@H](c3nnc4ccccn34)C2)nc1-c1c[nH]c2ccccc12 (relative stereo) [Compound 266] |  |  |  | 200 to 5000 | 200 to 5000 | 200 to 5000 | 20 to 200 |  |  | 20 to 200
19 | CCC(=O)N[C@H]1CNC[C@@H](Nc2ncc(C(F)(F)F)c(-c3c[nH]c4c(S(C)(=O)=O)cccc34)n2)C1 [Compound 254, N-[(3R,5S)-5-[[4-(7-methylsulfonyl-1H-indol-3-yl)-5-(trifluoromethyl)pyrimidin-2-yl]amino]-3-piperidyl]propanamide] |  |  |  | > 5000 | > 5000 | > 5000 | 200 to 5000 |  |  | 
20 | O=C(c1ccc2c(-c3nc(N[C@H]4CCCNC4)ncc3C(F)(F)F)c[nH]c2c1)N1CC[C@H](O)C1 [Compound 204, [(3S)-3-hydroxypyrrolidin-1-yl]-[3-[2-[[(3S)-3-piperidyl]amino]-5-(trifluoromethyl)pyrimidin-4-yl]-1H-indol-6-yl]methanone] |  |  |  | > 5000 | > 5000 | 200 to 5000 | < 20 |  | 200 to 5000 | 
21 | CNC(=O)C1CNCC(Nc2ncc(C(F)(F)F)c(-c3c[nH]c4ccccc34)n2)C1 (single isomer, unassigned) [Compound 252] |  |  |  | 200 to 5000 | > 5000 | > 5000 | 20 to 200 |  |  | 200 to 5000
22 | FC(F)(F)c1cnc(N[C@H]2CCCNC2)nc1-c1n[nH]c2ccccc12 [drawing 562] | 200 to 5000 | 200 to 5000 | < 20 |  |  |  |  | < 20 |  | 
23 | FC(F)(F)c1cnc(N[C@H]2CCCNC2)nc1-c1c[nH]c2cc(N3CCCC3)ccc12 [Compound 213, N-[(3S)-3-piperidyl]-4-(6-pyrrolidin-1-yl-1H-indol-3-yl)-5-(trifluoromethyl) pyrimidin-2-amine] |  |  |  | > 5000 | > 5000 |  |  |  | 20 to 200 | 
24 | FC(F)(F)c1cnc(N[C@H]2CCC3(CCCCC3)NC2)nc1-c1c[nH]c2ccccc12 [Compound 240] |  |  |  | 200 to 5000 | 200 to 5000 | 200 to 5000 | 20 to 200 |  |  | 
25 | FC(F)(F)c1cnc(N[C@H]2CCCNC2)nc1-c1c[nH]c2ccccc12 | 200 to 5000 | 20 to 200 | < 20 |  |  |  |  | < 20 |  | 
26 | CC1(O)CCC(c2cccc3c(-c4nc(N[C@H]5CCCNC5)ncc4C(F)(F)F)c[nH]c23)CC1 (single isomer, unassigned) [Compound 192] |  |  |  | 200 to 5000 | 200 to 5000 | 200 to 5000 | 20 to 200 |  |  | 
27 | C[C@]1(O)CCN(C(=O)c2ccc3c(-c4nc(N[C@H]5CCCNC5)ncc4C(F)(F)F)c[nH]c3c2)C1 [Compound 220, [(3S)-3-hydroxy-3-methyl-pyrrolidin-1-yl]-[3-[2-[[(3S)-3-piperidyl]amino]-5-(trifluoromethyl)pyrimidin-4-yl]-1Hindol-6-yl]methanone] |  |  |  | > 5000 | > 5000 | 200 to 5000 | < 20 |  |  | 
28 | CCc1cnc(N[C@H]2CCCNC2)nc1-c1c[nH]c2c(S(=O)O)cccc12 [Compound 363, 3-[5-ethyl-2-[[(3S)-3-piperidyl]amino]pyrimidin-4-yl]-1H-indole-7-sulfinic acid] |  |  |  | > 5000 | > 5000 | > 5000 | 20 to 200 |  |  | 
